Measurements from patent US10208071B2, “Use of agonists of formyl peptide receptor 2 for treating ocular inflammatory diseases” (Allergan, Inc., priority 2013, dated 2019).

Assays:
[1] = system: corneal epithelial wound; test: Alkali burn corneal wound in rabbits; type: in vivo; conditions: FIG. 3; rabbit model, b270 says mouse models; topical three times a day
Excerpt: Alkali burn in rabbits: Corneal epithelium plays an important role in the maintenance of corneal function and integrity. Prolonged corneal epithelial defects causes corneal opacity, neovascularization, bacterial infection and visual loss. Corneal epithelial healing is a complex process involving inflammatory response to injury, cell proliferation and migration. Animal models of corneal injury are every useful to test new anti-inflammatory and pro-wound healing therapies. New Zealand White rabbits weighing between 2.1 and 2.5 kg were anesthetized systemically with Ketamine/Xylazine (35/5 mg/kg) subcutaneously and topically with proparacaine (0.5%). The corneal epithelial wound in one eye was induced with a NaOH saturated filter paper containing 1.0 N NaOH for 30 seconds. The eyes were rinsed with sterile PBS. The corneal wound was confirmed by fluorescein staining with 10% sodium fluorescein (Science Lab Com) and slit lamp photography. Test compounds were formulated in the vehicle described above. For initial studies compounds were topically dosed three times a day. Quantification of corneal wound areas was done using Image J software where fluorescing stain green part was traced and converted to total pixel.

[2] = target: T1, FPR2 (Homo sapiens (Human), UniProt P25090); test: FLIPR Ca+2 response, HEK-Gα16 cells stably expressing the human FPR2 receptor (Table 4); type: cell-based; conditions: for FPR2 (efficacy): efficacy in parentheses
Summary of the method: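 HEK-Gα16 cells stably expressing human FPR2, loaded with 2 μM Fluo-4 in HBSS/20 mM HEPES for 40 min at 37° C., then washed. Ligands added in HBSS/Hepes and Ca+2 responses recorded on FLIPR in relative fluorescence units.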

[3] = target: T1, FPR2; test: FPR2 Ga16-CHO EC50 (efficacy), Tables 1-3; type: cell-based; conditions: for FPR2 Ga16-CHO (efficacy): efficacy in parentheses

T1 sequence (P25090 whole entry): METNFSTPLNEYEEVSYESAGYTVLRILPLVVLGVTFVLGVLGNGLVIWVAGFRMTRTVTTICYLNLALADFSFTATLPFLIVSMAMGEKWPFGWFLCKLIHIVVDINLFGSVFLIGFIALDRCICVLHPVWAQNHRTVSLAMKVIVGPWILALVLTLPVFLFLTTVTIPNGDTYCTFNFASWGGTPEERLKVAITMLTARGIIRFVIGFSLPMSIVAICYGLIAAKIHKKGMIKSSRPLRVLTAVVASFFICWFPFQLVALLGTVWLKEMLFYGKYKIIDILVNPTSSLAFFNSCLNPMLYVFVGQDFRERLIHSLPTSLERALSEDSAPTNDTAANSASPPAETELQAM

Compound	healing and re-epithelialization of corneal wound [1]	FPR2 (efficacy) [2]	EC50 ([2]; unit inferred) [nM]	EC50 [3] [nM]	FPR2 Ga16-CHO (efficacy) [3]
CC[C@H](C)[C@H](NC(=O)Nc1ccc(Br)cc1)C(=O)NCC(=O)O [Compound 3, {[(2S,3S)-2-{[(4-bromophenyl)carbamoyl]amino}-3-methylpentanoyl]amino}acetic acid]	accelerated healing and re-epithelialization	(1.0)	1.98	–	–
COc1ccc(NC(=O)N[C@@H](Cc2ccccc2)C(=O)O)cc1 [(2S)-2-({[(4-methoxyphenyl)amino]carbonyl}amino)-3-phenylpropanoic acid]	–	–	–	1750	nM (0.90)
O=C(Nc1ccc(OC(F)(F)F)cc1)NC(Cc1ccccc1)C(=O)O (centres unmarked) [3-phenyl-2-[({[4-(trifluoromethoxy)phenyl]amino}carbonyl)amino]propanoic acid]	–	–	–	1570	nM (0.79)
O=C(Nc1ccc(Br)cc1)NC(Cc1c[nH]c2ccccc12)C(=O)O (centres unmarked) [2-({[(4-bromophenyl)amino]carbonyl}amino)-3-(1H-indol-3-yl)propanoic acid]	–	–	–	67	nM (0.89)
O=C(Nc1ccc(Cl)cc1)NN1C(=O)NC2(CCCCC2)C1=O [1-(4-chlorophenyl)-3-(2,4-dioxo-1,3-diazaspiro[4,5]decan-3-yl) urea]	–	–	–	49	nM (0.98)
CC[C@H](C)[C@H](NC(=O)Nc1ccc(Br)cc1)C(=O)O [Compound 53, (2S,3S)-2-{[(4-bromophenyl)carbamoyl]amino}-3-methylpentanoic acid]	–	nM (0.9)	–	–	nM (0.89)
CCCC1(CCC)NC(=O)N(CC(=O)Nc2ccc(Br)cc2)C1=O [N-(4-bromophenyl)-2-(2,5-dioxo-4,4-dipropylimidazolidin-1-yl)acetamide]	–	–	–	645	nM (0.98)
CC(C)[C@H](NC(=O)Nc1ccc(Br)cc1F)C(=O)O [(2S)-2-({[(4-bromo-2-fluorophenyl)amino]carbonyl}amino)-3-methylbutanoic acid]	–	–	–	152	nM (0.91)
CCC1(CC)NC(=O)N(CC(=O)Nc2ccc(Cl)cc2)C1=O [N-(4-chlorophenyl)-2-(4,4-diethyl-2,5-dioxoimidazolidin-1-yl)acetamide]	–	–	–	314	nM (0.79)
O=C(CN1C(=O)C2C3C=CC(C3)C2C1=O)Nc1ccc(Br)cc1 (centres unmarked) [N-(4-bromophenyl)-1,3,3a,4,7,7a-hexahydro-1,3-dioxo-4,7-methano-2H-isoindole-2-acetamide]	–	–	–	–	(0.90)
O=C(CN1C(=O)NC2(CCCCCC2)C1=O)Nc1ccc(Br)cc1 [N-(4-bromophenyl)-2-(2,4-dioxo-1,3-diazaspiro[4.6]undec-3-yl)acetamide]	–	–	–	679	nM (0.96)
Cc1ccc(NC(=O)NN2C(=O)NC3(CCC(C)CC3)C2=O)cc1 (centres unmarked) [1-(8-methyl-2,4-dioxo-1,3-diazaspiro[4,5]decan-3-yl)-3-(p-tolypurea]	–	–	–	363	nM (0.91)
O=C(CN1C(=O)NC2(CCCC2)C1=O)Nc1ccc(Br)cc1 [N-(4-bromophenyl)-2-(2,4-dioxo-1,3-diazaspiro[4.4]non-3-yl)acetamide]	–	–	–	322	nM (0.96)
O=C(CN1C(=O)NC2(CCCCC2)C1=O)Nc1ccc(Br)cc1 [N-(4-bromophenyl)-2-(2,4-dioxo-1,3-diazaspiro[4.5]dec-3-yl)acetamide]	–	–	–	738	nM (0.89)
CC1(CCc2ccccc2)NC(=O)N(NC(=O)Nc2ccccc2F)C1=O (centres unmarked) [1-(2-fluorophenyl)-3-[4-methyl-2,5-dioxo-4-(2-phenylethyl)imidazolidin-1-yl]urea]	–	–	–	258	nM (0.94)
O=C(Nc1ccc(Br)cc1)N[C@H](C(=O)O)c1ccccc1 [(2S)-({[(4-bromophenyl)amino]carbonyl}amino) (phenyl)acetic acid]	–	–	–	25.8	nM (0.94)
CCC1(CC)NC(=O)N(CC(=O)Nc2ccc(Br)cc2)C1=O [N-(4-bromophenyl)-2-(4,4-diethyl-2,5-dioxoimidazolidin-1-yl)acetamide]	–	–	–	96	nM (0.98)
O=C(Nc1ccc(Br)cc1)N[C@H](Cc1ccccc1)C(=O)O [(2R)-2-({[(4-bromophenyl)amino]carbonyl}amino)-3-phenylpropanoic acid]	–	–	–	1820	nM (0.99)
CC1(C)NC(=O)N(CC(=O)Nc2ccc(Br)cc2)C1=O [N-(4-bromophenyl)-2-(4,4-dimethyl-2,5-dioxoimidazolidin-1-yl)acetamide]	–	–	–	719	nM (0.94)
